Measurements taken from patent publication US20100022562A1, “Use of Plant Growth Regulators to Reduce Abscisic Acid Related Plant Leaf Yellowing” (priority 2008, published 2010).

Key:
Format in all cases: in vivo
Pansy plants [1] = assay: Pansy shelf life under drought (daily wilting rating, sales index)
Experimental: (§1) All studies were conducted in the greenhouse at the research farm of Valent BioSciences Corporation (Long Grove, Ill.). Pansy plants were obtained either from local retailers as mature plants, or plugs from wholesale nurseries. Plugs of Pansy plants were transplanted into an 18-cell flat filled with Promix BX (available from Premier Horticulture Inc. Quakertown, Pa.) and grown for about 30 days prior to treatment. During growing periods, plants received daily irrigation and weekly fertilizer (1 g/L all purpose fertilizer 20-20-20, The Scotts Company, Marysville, Ohio).
(§2) Uniform plants were selected for the study. Prior to chemical treatment, plants were saturated with water and then drained for about two hours. A total of 20 mL chemical solution, which is equivalent to about 10% of the cell volume, was applied to each plant with 3 mL solution foliar applied to canopy and 17 mL solution drench applied to root zone. Unless specified, watering of plants was stopped after chemical treatment.
(§3) After chemical treatment, plants were arranged in a randomized complete block experimental design. The plants were rated daily for the extent of wilting on a scale from 1 (no wilting) to 4 (complete wilting) to generated a sales index rating. A rating of 2.5 was the point at which a plant was determined to be unmarketable and the previous day was recorded as the shelf life of that plant in days. Yellow leaf number was counted at 3 days after chemical treatment. Leaf transpiration rate was measured after treatment using a LI-1600 Steady State Porometer (LI-Cor, Lincoln, Nebr.). The transpiration rate of each treatment was calculated as the percentage of that of control at each day to reduce day-to-day variation caused by changes of environmental condition such as light intensity, humidity, and temperature.

Pansy plants [2] = assay: Pansy yellow leaf number (leaf yellowing)
Experimental: as §1, §2
as §3, with “Yellow leaf number was counted at 3 days after chemical treatment.” left out

Pansy plants [3] = assay: Pansy leaf transpiration rate (LI-1600 Steady State Porometer); conditions: for Transpiration rate (% of control): Matrix Premium Rose, Table 16; for Transpiration inhibition: sufficient water
Experimental: as §2, §3

Pansy plants [4] = assay: Plant elongation after gibberellin treatment; conditions: 0.1 mg or 1 mg per plant; Delta Premium Pure White
Text: GA4/7 reduced the number of yellow leaves more than GA3.

**Q.** Which results are given for C#CC1(C)CC(=O)C=C(C)C1(O)/C=C/C(C)=C\C(=O)OC (stereo not drawn) [PBI-429, 8′ acetylene-ABA methyl ester]?
**A.** Shelf life (Pansy plants [1]; 0.1 mg, Matrix Orange, drought, Table 1): 5.5 days; Shelf life (Pansy plants [1]; 0.3 mg PBI-429, no water, Whispers White, Table 15): 3.8 days; Shelf life (Pansy plants [1]; 0.3 mg, Clear Sky Yellow, drought, Table 8): 6.5 days; Shelf life (Pansy plants [1]; 0.3 mg, Crown Azure Blue, drought, Table 9): 4.5 days; Shelf life (Pansy plants [1]; 0.3 mg, Matrix Orange, drought, Table 1): 5.8 days; Shelf life (Pansy plants [1]; 0.3 mg, Matrix Orange, drought, Table 2): 5.8 days; Shelf life (Pansy plants [1]; 0.3 mg, Matrix Yellow, drought, Table 7): 7.5 days; Shelf life (Pansy plants [1]; 1 mg, Matrix Orange, drought, Table 1): 7.0 days; Shelf life (Pansy plants [1]; 3 mg PBI-429, no water, Whispers White, Table 15): 7.2 days; Shelf life (Pansy plants [1]; 3 mg, Clear Sky Yellow, drought, Table 8): 8.7 days; Shelf life (Pansy plants [1]; 3 mg, Crown Azure Blue, drought, Table 9): 7.0 days; Shelf life (Pansy plants [1]; 3 mg, Matrix Orange, drought, Table 1): 8.3 days; Shelf life (Pansy plants [1]; 3 mg, Matrix Orange, drought, Table 2): 9.5 days; Shelf life (Pansy plants [1]; 3 mg, Matrix Yellow, drought, Table 7): 8.8 days; Yellow leaf number (Pansy plants [2]; 0.1 mg, Matrix Orange, drought, 3 d after treatment, Table 1): 3; Yellow leaf number (Pansy plants [2]; 0.3 mg, Clear Sky Yellow, drought, 3 d after treatment, Table 8): 2.8; Yellow leaf number (Pansy plants [2]; 0.3 mg, Crown Azure Blue, drought, 3 d after treatment, Table 9): 4.8; Yellow leaf number (Pansy plants [2]; 0.3 mg, Matrix Orange, drought, 3 d after treatment, Table 1): 5; Yellow leaf number (Pansy plants [2]; 0.3 mg, Matrix Orange, drought, 3 d after treatment, Table 2): 9.0; Yellow leaf number (Pansy plants [2]; 0.3 mg, Matrix Yellow, drought, 3 d after treatment, Table 7): 9.7; Yellow leaf number (Pansy plants [2]; 1 mg, Matrix Orange, drought, 3 d after treatment, Table 1): 7; Yellow leaf number (Pansy plants [2]; 3 mg PBI-429, no water, Whispers White, 3 d after treatment, Table 15): 23.3; Yellow leaf number (Pansy plants [2]; 3 mg, Clear Sky Yellow, drought, 3 d after treatment, Table 8): 4.8; Yellow leaf number (Pansy plants [2]; 3 mg, Crown Azure Blue, drought, 3 d after treatment, Table 9): 7.7; Yellow leaf number (Pansy plants [2]; 3 mg, Matrix Orange, drought, 3 d after treatment, Table 1): 10; Yellow leaf number (Pansy plants [2]; 3 mg, Matrix Yellow, drought, 3 d after treatment, Table 7): 13.2; Transpiration rate (% of control) (Pansy plants [3]; 0.3 mg PBI-429, no water, day 1 after treatment): 34 % of control; Transpiration rate (% of control) (Pansy plants [3]; 0.3 mg PBI-429, no water, day 2 after treatment): 35 % of control; Transpiration rate (% of control) (Pansy plants [3]; 0.3 mg PBI-429, no water, day 3 after treatment): 26 % of control; Transpiration inhibition (Pansy plants [3]; 0.3 mg PBI-429, through 3 days after treatment): greater than 50%; Transpiration rate (% of control) (Pansy plants [3]; 0.3 mg PBI-429, watered, day 1 after treatment): 32 % of control; Transpiration rate (% of control) (Pansy plants [3]; 0.3 mg PBI-429, watered, day 2 after treatment): 33 % of control; Transpiration rate (% of control) (Pansy plants [3]; 0.3 mg PBI-429, watered, day 3 after treatment): 44 % of control; Transpiration rate (% of control) (Pansy plants [3]; 0.3 mg PBI-429, watered, day 4 after treatment): 68 % of control; Transpiration rate (% of control) (Pansy plants [3]; 0.3 mg PBI-429, watered, day 5 after treatment): 74 % of control; Transpiration rate (% of control) (Pansy plants [3]; 0.3 mg PBI-429, watered, day 7 after treatment): 81 % of control; Transpiration rate (% of control) (Pansy plants [3]; 0.3 mg PBI-429, watered, day 10 after treatment): 88 % of control; Transpiration rate (% of control) (Pansy plants [3]; 3 mg PBI-429, no water, day 1 after treatment): 23 % of control; Transpiration rate (% of control) (Pansy plants [3]; 3 mg PBI-429, no water, day 2 after treatment): 14 % of control; Transpiration rate (% of control) (Pansy plants [3]; 3 mg PBI-429, no water, day 3 after treatment): 9 % of control; Transpiration rate (% of control) (Pansy plants [3]; 3 mg PBI-429, no water, day 4 after treatment): 10 % of control; Transpiration rate (% of control) (Pansy plants [3]; 3 mg PBI-429, no water, day 5 after treatment): 18 % of control; Transpiration inhibition (Pansy plants [3]; 3 mg PBI-429, through 10 days after treatment): greater than 50%; Transpiration rate (% of control) (Pansy plants [3]; 3 mg PBI-429, watered, day 1 after treatment): 20 % of control; Transpiration rate (% of control) (Pansy plants [3]; 3 mg PBI-429, watered, day 2 after treatment): 15 % of control; Transpiration rate (% of control) (Pansy plants [3]; 3 mg PBI-429, watered, day 3 after treatment): 29 % of control; Transpiration rate (% of control) (Pansy plants [3]; 3 mg PBI-429, watered, day 4 after treatment): 28 % of control; Transpiration rate (% of control) (Pansy plants [3]; 3 mg PBI-429, watered, day 5 after treatment): 32 % of control; Transpiration rate (% of control) (Pansy plants [3]; 3 mg PBI-429, watered, day 7 after treatment): 44 % of control; Transpiration rate (% of control) (Pansy plants [3]; 3 mg PBI-429, watered, day 10 after treatment): 46 % of control

**Q.** How did the Shelf life (Pansy plants [1]; 0.1 mg, Delta Premium Pure White, Table 24) turn out when C=C1C[C@]23C[C@@]1(O)CC[C@H]2[C@@]12C=C[C@H](O)[C@@](C)(C(=O)O1)[C@H]2[C@@H]3C(=O)O [GA3, gibberellin A3] was run?
**A.** 4.3 days

**Q.** And the Shelf life (Pansy plants [1]; 1 mg, Delta Premium Pure White, Table 24)?
**A.** 4.0 days

**Q.** And the “Effect on plant elongation” value (Pansy plants [4])?
**A.** no apparent effect

**Q.** And the Yellow leaf number (Pansy plants [2]; 0.1 mg, Delta Premium Pure White, 3 days after treatment, Table 24)?
**A.** 1.3

**Q.** What about the Yellow leaf number (Pansy plants [2]; 0.1 mg, Delta Premium Pure White, 7 days after treatment, Table 24) of the same molecule?
**A.** 3.8

**Q.** And the Yellow leaf number (Pansy plants [2]; 1 mg, Delta Premium Pure White, 3 days after treatment, Table 24)?
**A.** 1.2

**Q.** And the Yellow leaf number (Pansy plants [2]; 1 mg, Delta Premium Pure White, 7 days after treatment, Table 24)?
**A.** 3.7
